Measured values: patent publication US10611759B2, “Glutaminase inhibitors” (Rhizen Pharmaceuticals SA, priority 2014, dated 2020)
Read-outs that look alike come from different tables or passages of the source.

Target: T1, Glutaminase(Brain) (Mus musculus, UniProt D3Z7P3)
T1 sequence (D3Z7P3 55-674): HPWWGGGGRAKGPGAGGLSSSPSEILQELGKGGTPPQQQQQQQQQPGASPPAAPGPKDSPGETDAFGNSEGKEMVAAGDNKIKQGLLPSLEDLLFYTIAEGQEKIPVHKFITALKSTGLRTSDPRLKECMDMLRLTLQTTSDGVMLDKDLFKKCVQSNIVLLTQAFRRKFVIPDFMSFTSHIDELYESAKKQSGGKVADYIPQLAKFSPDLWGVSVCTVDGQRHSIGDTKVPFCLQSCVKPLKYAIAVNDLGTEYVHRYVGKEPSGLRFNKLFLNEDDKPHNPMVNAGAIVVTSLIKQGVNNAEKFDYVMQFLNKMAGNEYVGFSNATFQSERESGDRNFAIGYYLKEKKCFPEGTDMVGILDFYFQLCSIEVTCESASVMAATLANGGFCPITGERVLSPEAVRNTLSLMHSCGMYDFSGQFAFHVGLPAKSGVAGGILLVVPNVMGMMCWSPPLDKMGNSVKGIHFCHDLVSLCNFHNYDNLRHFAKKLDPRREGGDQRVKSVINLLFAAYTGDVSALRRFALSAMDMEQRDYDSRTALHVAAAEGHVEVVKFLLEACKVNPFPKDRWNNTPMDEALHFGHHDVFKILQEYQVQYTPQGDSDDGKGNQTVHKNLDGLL
Test: Glutaminase enzyme activity using glutaminase enzyme from mice brain/kidney homogenate (Nessler's reagent, ammonia)
Format: biochemical
Settings: for inhibition at 0.1 µM: read-out: Glutaminase(Brain) activity % inhibition 0.1 μM; for inhibition at 1 µM: read-out: Glutaminase(Brain) activity % inhibition @1 μM
Procedure: Assay 3: Determination of Glutaminase Enzyme Activity Using Glutaminase Enzyme from Mice Brain/Kidney
Step 1: Preparation of Tissue Homogenates:
Male Balb/c mice were administered 0.28 M ammonium chloride in drinking water for 7 days. The animals were sacrificed and brain/kidney organs collected on dry ice. […] The tissue was homogenized and supernatants were stored at −80° C. until the enzyme assay was performed.
Aim: Compounds were assessed for their ability to inhibit the enzymatic activity of L-glutaminase present in mice brain/kidney homogenate.
Protocol: The assay was performed using a colorimetric method using Nessler's Reagent by quantifying the amount of ammonia formed as a by product during the enzymatic conversion of L-glutamine to glutamate. In the routine assay, 16 μl of tissue homogenate is added to 33 μl of Tris-Hcl phosphate buffer (pH 8) along with 1 μl of DMSO/test compound containing the desired final concentration and vortexed briefly. 50 μl of 20 mM L-glutamine Tris buffer is added to start the reaction and incubated for 15 minutes at 37° C. The ammonia formed is detected by adding 20 μl of reaction mixture to cold water in a 96 well plate followed by 20 μl of Nessler's reagent. The colour developed is measured at 450 nm. Data Analysis: Activity of the test compound is reported as % inhibition and the data is analyzed using Graphpad Prism (Graphpad software; San Diego Calif.) for IC50 determination.

| Structure (SMILES) | inhibition at 0.1 µM (0.1 μM, mice brain homogenate) [%] | inhibition at 1 µM (1 μM, mice brain homogenate) [%] | inhibition at 0.1 µM [%] | inhibition at 1 µM [%] |
| --- | --- | --- | --- | --- |
| O=C(Cc1cccc(OC(F)(F)F)c1)Nc1ccc(N2CCCC(c3nnc(NC(=O)Cc4ccccn4)s3)C2)cn1 (racemic) [Example 2, (RS)-2-(Pyridin-2-yl)-N-(5-(1-(6-(2-(3-(trifluoromethoxy)phenyl)acetamido)pyridin-3-yl)piperidin-3-yl)-1,3,4-thiadiazol-2-yl)acetamide] | < 25 | 25 to 50 | – | – |
| O=C(Cc1cccc(OC(F)(F)F)c1)Nc1ccc(N2CCC(c3nnc(NC(=O)Cc4ccccn4)s3)CC2)cn1 [Example 1, 2-(Pyridin-2-yl)-N-(5-(1-(6-(2-(3-(trifluoromethoxy)phenyl)acetamido)pyridin-3-yl)piperidin-4-yl)-1,3,4-thiadiazol-2-yl)acetamide] | – | – | < 25 | 50 to 75 |
| N#Cc1cccc(CC(=O)Nc2nnc(C3CCN(c4ccc(NC(=O)Cc5cccc(OC(F)(F)F)c5)nc4)CC3)s2)c1 [Example-5, 2-(3-Cyanophenyl)-N-(5-(1-(6-(2-(3-(trifluoromethoxy)phenyl)acetamido)pyridin-3-yl)piperidin-4-yl)-1,3,4-thiadiazol-2-yl)acetamide] | < 25 | 25 to 50 | – | – |
| O=C(Cc1ccccn1)Nc1ccc(N2CCC(c3nnc(NC(=O)Cc4cccc(OC(F)(F)F)c4)s3)CC2)cn1 [Example-6, 2-(Pyridin-2-yl)-N-(5-(4-(5-(2-(3-(trifluoromethoxy)phenyl)acetamido)-1,3,4-thiadiazol-2-yl)piperidin-1-yl)pyridin-2-yl)acetamide] | < 25 | < 25 | – | – |
| O=C(Cc1ccccn1)Nc1ccc(N2CCC(c3nnc(NC(=O)Cc4cccc(F)c4F)s3)CC2)nn1 [Example-21, 2-(2,3-Difluorophenyl)-N-(5-(1-(6-(2-(pyridin-2-yl)acetamido)pyridazin-3-yl)piperidin-4-yl)-1,3,4-thiadiazol-2-yl)acetamide] | 50 to 75 | 75 to 100 | – | – |
| O=C(Cc1ccccn1)Nc1ccc(N2CCC(c3nnc(NC(=O)Cc4ccc(F)c(F)c4)s3)CC2)nn1 [Example-22, 2-(3,4-Difluorophenyl)-N-(5-(1-(6-(2-(pyridin-2-yl)acetamido)pyridazin-3-yl)piperidin-4-yl)-1,3,4-thiadiazol-2-yl)acetamide] | 50 to 75 | 75 to 100 | – | – |
| O=C(Cc1ccccn1)Nc1ccc(N2CCC(c3nnc(NC(=O)Cc4ccccc4F)s3)CC2)nn1 [Example-23, 2-(2-Fluorophenyl)-N-(5-(1-(6-(2-(pyridin-2-yl)acetamido)pyridazin-3-yl)piperidin-4-yl)-1,3,4-thiadiazol-2-yl)acetamide] | 50 to 75 | 75 to 100 | – | – |
| O=C(Cc1ccccn1)Nc1ccc(N2CCC(c3nnc(NC(=O)Cc4cccc(F)c4)s3)CC2)nn1 [Example-24, 2-(3-Fluorophenyl)-N-(5-(1-(6-(2-(pyridin-2-yl)acetamido)pyridazin-3-yl)piperidin-4-yl)-1,3,4-thiadiazol-2-yl)acetamide] | 50 to 75 | 75 to 100 | – | – |
| O=C(Cc1ccccn1)Nc1ccc(N2CCC(c3nnc(NC(=O)Cc4ccc(F)cc4)s3)CC2)nn1 [Example-25, 2-(4-Fluorophenyl)-N-(5-(1-(6-(2-(pyridin-2-yl)acetamido)pyridazin-3-yl)piperidin-4-yl)-1,3,4-thiadiazol-2-yl)acetamide] | 50 to 75 | 75 to 100 | – | – |
| COc1ccccc1CC(=O)Nc1nnc(C2CCN(c3ccc(NC(=O)Cc4ccccn4)nn3)CC2)s1 [Example-26, 2-(2-Methoxyphenyl)-N-(5-(1-(6-(2-(pyridin-2-yl)acetamido)pyridazin-3-yl)piperidin-4-yl)-1,3,4-thiadiazol-2-yl)acetamide] | 50 to 75 | 75 to 100 | – | – |
| O=C(Cc1ccccn1)Nc1ccc(N2CCC(c3nnc(NC(=O)Cc4ccccc4Cl)s3)CC2)nn1 [Example-27, 2-(2-Chlorophenyl)-N-(5-(1-(6-(2-(pyridin-2-yl)acetamido)pyridazin-3-yl)piperidin-4-yl)-1,3,4-thiadiazol-2-yl)acetamide] | 50 to 75 | 75 to 100 | – | – |
| O=C(Cc1ccccn1)Nc1ccc(N2CCC(c3nnc(NC(=O)Cc4ccc(Cl)cc4)s3)CC2)nn1 [Example-29, 2-(4-Chlorophenyl)-N-(5-(1-(6-(2-(pyridin-2-yl)acetamido)pyridazin-3-yl)piperidin-4-yl)-1,3,4-thiadiazol-2-yl)acetamide] | 50 to 75 | 75 to 100 | – | – |
| O=C(Cc1cccc(OC(F)(F)F)c1)Nc1ccc(N2CCC(c3nnc(NC(=O)Cc4ccc5ncccc5c4)s3)CC2)nn1 [Example-30, 2-(Quinolin-6-yl)-N-(5-(1-(6-(2-(3-(trifluoromethoxy)phenyl)acetamido)pyridazin-3-yl)piperidin-4-yl)-1,3,4-thiadiazol-2-yl)acetamide] | 50 to 75 | 75 to 100 | – | – |
| Cc1ccccc1CC(=O)Nc1nnc(C2CCN(c3ccc(NC(=O)Cc4cccc(OC(F)(F)F)c4)nn3)CC2)s1 [Example-31, 2-o-Tolyl-N-(5-(1-(6-(2-(3-(trifluoromethoxy)phenyl)acetamido)pyridazin-3-yl)piperidin-4-yl)-1,3,4-thiadiazol-2-yl)acetamide] | 25 to 50 | 50 to 75 | – | – |

Other lines, results leading:

| inhibition at 0.1 µM (0.1 μM, mice brain homogenate) [%] | inhibition at 1 µM (1 μM, mice brain homogenate) [%] | inhibition at 0.1 µM [%] | inhibition at 1 µM [%] | Structure (SMILES) |
| --- | --- | --- | --- | --- |
| < 25 | < 25 | – | – | O=C(Cc1cccc(OC(F)(F)F)c1)Nc1ccc(N2CCCC(c3nnc(NC(=O)Cc4ccccn4)s3)C2)cn1 (single isomer, unassigned) [Example 2A, (R) or (S) 2-(Pyridin-2-yl)-N-(5-(1-(6-(2-(3-(trifluoromethoxy)phenyl)acetamido)pyridin-3-yl)piperidin-3-yl)-1,3,4-thiadiazol-2-yl)acetamide] |
| < 25 | < 25 | – | – | O=C(Cc1cccc(OC(F)(F)F)c1)Nc1ccc(N2CCCC(c3nnc(NC(=O)Cc4cccnc4)s3)C2)cn1 (single isomer, unassigned) [Example 3B, (S) or (R) 2-(Pyridin-3-yl)-N-(5-(1-(6-(2-(3-(trifluoromethoxy)phenyl)acetamido)pyridine-3-yl)piperidin-3-yl)-1,3,4-thiadiazol-2-yl)acetamide] |
| < 25 | 50 to 75 | – | – | O=C(Cc1cccc(OC(F)(F)F)c1)Nc1ccc(N2CCCC(c3nnc(NC(=O)Cc4ccccc4Cl)s3)C2)nn1 (stereo not drawn) [Example-13, 2-(2-Chlorophenyl)-N-(5-(1-(6-(2-(3-(trifluoromethoxy)phenyl)acetamido)pyridazin-3-yl)piperidin-3-yl)-1,3,4-thiadiazol-2-yl)acetamide] |
| 50 to 75 | 75 to 100 | – | – | O=C(Cc1cccnc1)Nc1ccc(N2CCC(c3nnc(NC(=O)Cc4c(F)ccc(F)c4F)s3)CC2)nn1 [Example-19, 2-(Pyridin-3-yl)-N-(6-(4-(5-(2-(2,3,6-trifluorophenyl)acetamido)-1,3,4-thiadiazol-2-yl)piperidin-1-yl)pyridazin-3-yl)acetamide] |
| 25 to 50 | 50 to 75 | – | – | O=C(Cc1ccccn1)Nc1ccc(N2CCC(c3nnc(NC(=O)Cc4c(F)ccc(F)c4F)s3)CC2)nn1 [Example-20, 2-(Pyridin-2-yl)-N-(6-(4-(5-(2-(2,3,6-trifluorophenyl)acetamido)-1,3,4-thiadiazol-2-yl)piperidin-1-yl)pyridazin-3-yl)acetamide] |
| 50 to 75 | 50 to 75 | – | – | O=C(Cc1ccccn1)Nc1ccc(N2CCC(c3nnc(NC(=O)Cc4cc(Cl)ccc4C(F)(F)F)s3)CC2)nn1 [Example-28, 2-(5-Chloro-2-(trifluoromethyl)phenyl)-N-(5-(1-(6-(2-(pyridin-2-yl)acetamido)pyridazin-3-yl)piperidin-4-yl)-1,3,4-thiadiazol-2-yl)acetamide] |
| 25 to 50 | 50 to 75 | – | – | O=C(Cc1cccc(OC(F)(F)F)c1)Nc1ccc(N2CCC(c3nnc(NC(=O)Cc4c[nH]c5ccccc45)s3)CC2)nn1 [Example-32, N-(6-(4-(5-(2-(1H-indol-3-yl)acetamido)-1,3,4-thiadiazol-2-yl)piperidin-1-yl)pyridazin-3-yl)-2-(3-(trifluoromethoxy)phenyl)acetamide] |
